In patent publication US11981918B2, “Differentiation technique to generate dopaminergic neurons from induced pluripotent stem cells” (CEDARS-SINAI MEDICAL CENTER, priority 2018, dated 2024):
Entries after “also recorded” stand apart in the source; their conditions may differ. Where a SMILES comes first, the peptide text is derived from it. The star is where a group is joined. Cbz = O=C(OCc1ccccc1)*

Experiments:
α-Synuclein [1] = assay: α-Synuclein protein in iPSC-derived DaNs treated with lysosomal agonists (western blot); type: cell-based, human; settings: for amount of α-Synuclein protein: DaNs from control lines; for amount of α-Synuclein protein / synuclein levels: treated for 3 days starting at day 27; for synuclein levels: EOSPD DaNs; for α-Synuclein levels: both control and PD DaNs, all treated lines
Description: FIG. 5: Treatment with lysosomal agonists and Elevated p-PKCa in PD lines. […] Baseline levels of p-PKCa in d30 DaNs (b). Day 30 DaNs treated with PEP from multiple PD and control lines(c). Timecourse of PEP treatment and synuclein levels (d) Timecourse of PEP treatment SNCA (e) and TH (f) gene expression.
To test if the Inventors could reduce synuclein levels in our EOSPD DANs through activation of lysosomal specific pathways, the Inventors selected 3 lysosomal agonists. […] Starting at day 27, DaNs were treated for 3 days with the above lysosomal agonists.

α-Synuclein [2] = settings: cited from earlier work
neurons in Brain-Chip = type: cell-based, human
PC12 cell model = settings: cited from earlier work
P53 = P53 level in DaN cultures under proteasome inhibition; type: cell-based, human; settings: 24 hrs
Description: (§1) […]. Western blot showing synuclein degradation under 24 hrs of MG132 proteosomal inhibitor (e). Western blot showing reduced LAMP1 protein in PD DaNs (f). […]. Data were normalized to 02iCTR for each differentiation and presented as a fold change (g). NIRF detection of oxidized dopamine from D30 DaN lysates (h)
(§2) Protein degradation can be largely divided into protosomal and autophagy/lysosomal degradation pathways.

α-Synuclein [3] = assay: α-Synuclein level in DaN cultures under proteasome inhibition; type: cell-based, human; settings: 24 hrs
Description: as §1, §2

TH enzyme = TH enzyme amount in iPSC-derived DaNs treated with lysosomal agonists (western blot); type: cell-based, human; settings: both control and PD DaNs, treated for 3 days
p-PKCa = assay: Phosphorylated PKC alpha in iPSC-derived DaNs after PEP005 treatment (western blot); type: cell-based, human
LAMP1 = LAMP1 protein in DaNs after PEP treatment; type: cell-based, human; settings: PD cells
LC3 = LC3 protein in DaNs after PEP treatment; type: cell-based, human; settings: PD cells
cleaved caspase 3 (CC3) = assay: Cleaved caspase 3 in DaNs after PEP treatment; type: cell-based, human; settings: DaNs on drug treatment, most easily observed in PD cells; listed as PEP
Description: (§3) The elevated phosphorylation of PKCa was absent in the undifferentiated iPSCs and no clear pattern was evident in peripheral blood from the individual patients indicating specificity to the differentiated DaNs. […].
(§4) It is likely that the toxicity of PEP is more specific to highly proliferative cells whereas our differentiated neurons are largely post mitotoic.

SNCA = SNCA gene expression timecourse of PEP treatment in DaNs; type: cell-based, human; settings: 4 hours after PEP treatment
Experimental: (§5) FIG. 5: Treatment with lysosomal agonists and Elevated p-PKCa in PD lines. Western blot and relative band quantifications of d30 DaNs treated with indicated compounds for 72 hours (a). Baseline levels of p-PKCa in d30 DaNs (b). Day 30 DaNs treated with PEP from multiple PD and control lines(c). Timecourse of PEP treatment and synuclein levels (d) Timecourse of PEP treatment SNCA (e) and TH (f) gene expression. Confirmation of elevated synuclein and p-PKCa in addition control and PD lines (g)
as §3

TH [4] = assay: TH gene expression timecourse of PEP treatment in DaNs; type: cell-based, human; settings: roughly 8 hours after initial exposure
Experimental: as §5, §3

DaN cultures = type: cell-based, human; settings: DaN cultures on drug treatment
Description: as §4

synuclein = assay: In vivo synuclein in striatum after injection of PEP into the ventricles of WT mice; set-up: species or system mouse; settings: WT mice, 0.3, 3 and 30 μM injected into the ventricles, 1 and 5 days post injection
TH [5] = assay: In vivo TH in striatum after injection of PEP into the ventricles of WT mice; set-up: species or system mouse; settings: WT mice, 0.3, 3 and 30 μM injected into the ventricles, 1 and 5 days post injection
PKC C1 domains = settings: cited from earlier work
[6] = tested on: various cancer cell lines and primary acute myeloid leukaemia (AML) cells; settings: cited from earlier work
[7] = tested on: leukemic cell lines and primary AML cells; settings: by activating PKCδ and sustained activation of ERK1/2; cited from earlier work
[8] = time-course, control and PD DaNs

SMILES: OC[C@H]1O[C@H](O[C@H]2O[C@H](CO)[C@@H](O)[C@H](O)[C@H]2O)[C@H](O)[C@@H](O)[C@@H]1O [Trehalose]
- amount of α-Synuclein protein (α-Synuclein [1]): not Trehalose significantly reduced
- synuclein levels (α-Synuclein [1]): only the PKC agonist PEP005 substantially reduced synuclein levels
- clearance of α-Synuclein (α-Synuclein [2]): promote clearance

SMILES: NC1=N[C@H](O)[C@H]2[C@H]3O[C@]4(O)O[C@@H]([C@@H](O)[C@@]2(N1)[C@@H]4O)[C@]3(O)CO [tetrodotoxin]
- neuron activity (calcium imaging) (neurons in Brain-Chip): Neuron activity ablated

SMILES: C=CCNc1ncnc2ccc(Br)cc12 [SMER28]
- amount of α-Synuclein protein (α-Synuclein [1]): significantly reduced
- synuclein levels (α-Synuclein [1]): only the PKC agonist PEP005 substantially reduced synuclein levels
- Huntington and α-Synuclein aggregates (PC12 cell model): reduce

SMILES: CC(C)C[C@@H](C=O)NC(=O)[C@H](CC(C)C)NC(=O)[C@H](CC(C)C)NC(=O)OCc1ccccc1 [MG132] (Cbz-Leu-Leu-Leu-aldehyde)
- P53 level (P53): accumulation of P53
- α-Synuclein levels (α-Synuclein [3]): no substantial change

SMILES: C/C=C(/C)C(=O)O[C@H]1C(C)=C[C@]23C(=O)[C@@H](C=C(CO)[C@@H](O)[C@]12O)[C@H]1[C@@H](C[C@H]3C)C1(C)C [PEP005, ingenol-3-angelate]
- amount of α-Synuclein protein (α-Synuclein [1]): significantly reduced
- synuclein levels (α-Synuclein [1]): substantially reduced
- α-Synuclein levels (α-Synuclein [1]): reduced
- α-Synuclein levels (α-Synuclein [1]; listed as PEP): reduced synuclein in all treated lines
- time in which α-Synuclein is degraded in response to drug treatment (α-Synuclein [1]; [8]): ≤ 24 h
- amount of TH enzyme (TH enzyme): increased amount of TH enzyme
- amount of TH enzyme (TH enzyme; listed as PEP): increase in the amount of TH
- phosphorylation of PKCa (p-PKCa; 1 μM for 3 days, DaNs from all iPSC lines): clearly ablated
- PKC alpha phosphorylation signal (p-PKCa; control and PD DaNs, at endpoint of 72 hours treatment): completely ablating this signal
- time in which p-PKCa is degraded in response to drug treatment (p-PKCa; [8]): ≤ 24 h
- LAMP1 response (LAMP1): does not appear to be replicated
- LAMP1 response (LAMP1; listed as PEP): neither LAMP1 nor LC3 respond
- LC3 response (LC3): neither LAMP1 nor LC3 respond
- cleaved (active) caspase 3 (cleaved caspase 3 (CC3)): marked decrease; also recorded: decrease in the amount of active caspase 3
- SNCA gene expression (SNCA): downregulated
- TH gene expression (TH [4]): upregulated
- LDH (DaN cultures): nor do the Inventors see an increase in LDH
- synuclein in mouse striatum (synuclein): Reduction of synuclein
- TH in mouse striatum (TH [5]): increase in TH
- selectivity for individual PKC isoforms (PKC C1 domains): no selectivity
- proliferation [6]: inhibiting proliferation
- apoptosis [7]: induces apoptosis
